This is an account of results in patent publication US12466820B2, “Amino quinazoline derivatives as P2X3 inhibitors” (CHIESI FARMACEUTICI S.p.A., priority 2019, dated 2025).

Counter-ions that a name gives are not always drawn.

A word on the IC50: it is the concentration that inhibits the measured activity by half.

For the first test, the target named is T1, h P2X3 (Homo sapiens, UniProt P56373).
T1 sequence (P56373 1-397): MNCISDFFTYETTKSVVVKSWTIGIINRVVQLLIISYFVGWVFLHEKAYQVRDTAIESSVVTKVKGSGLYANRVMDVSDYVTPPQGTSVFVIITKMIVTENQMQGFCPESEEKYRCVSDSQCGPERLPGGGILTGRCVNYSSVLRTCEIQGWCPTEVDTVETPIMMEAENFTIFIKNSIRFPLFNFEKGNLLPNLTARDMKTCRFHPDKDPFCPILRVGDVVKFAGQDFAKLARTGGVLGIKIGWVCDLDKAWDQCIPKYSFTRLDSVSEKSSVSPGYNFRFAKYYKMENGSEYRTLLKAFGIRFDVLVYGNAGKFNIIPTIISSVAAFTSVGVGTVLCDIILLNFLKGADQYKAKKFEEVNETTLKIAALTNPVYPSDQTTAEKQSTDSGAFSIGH
In words: In vitro electrophysiology assay for P2X3 (automated whole-cell patch clamp, Sophion Qube). Type of test: cell-based. The note with it: Table 6; range of activity; inhibition of P2X3 current, agonist α,β-MeATP (800 nM). As for the experimental part:
Pharmacological Activity of the Compounds of the Invention In Vitro Electrophysiology Assay for P2X3
Cells expressing P2X3 receptors were grown according to standard practice and maintained at 37° C. in a 5% humidified CO2 atmosphere. The cells were seeded into T175 flask 2 days prior to the day of the assay and dissociated from the flasks using TrypLE when grown to confluence of 80-90%. The dissociated cells were resuspended in serum free media at a cell density of 3×10^6 cells/ml and loaded onto the Sophion Qube automated patch-clamp system. The extracellular assay buffer contained 145 mM NaCl, 4 mM KCl, 2 mM CaCl2), 1 mM MgCl2, 10 mM HEPES, and 10 mM glucose at pH 7.4. The intracellular assay solution contained 140 mM CsF, 10 mM NaCl, 10 mM EGTA, 10 mM HEPES at pH 7.2. Agonist stock solutions were prepared in H2O and diluted in bath solution prior to use. All antagonists were prepared as 10 mM stock solutions in DMSO and diluted in bath solution prior to use. All experiments were performed under the whole-cell patch clamp configuration at room temperature with 384 individual cells being voltage clamped at −60 mV simultaneously on the Sophion Qube instrument. Two baseline responses were established with the application of α,β-MeATP (800 nM), with the subsequent agonist applications being washed out using extracellular assay buffer containing 0.5 U/ml apyrase. Following the second agonist application, antagonist was incubated in the absence of α,β-MeATP for 10 minutes. After antagonist preincubation, 800 nM α,β-MeATP and antagonist were co-administered to determine the inhibitory effect of the antagonist. One concentration of an antagonist was assessed against a single cell, with different concentrations of the antagonist applied to other cells on the 384 recording substrate. The control P2X3 current amplitude was taken from the peak current amplitude from the second agonist response prior to preincubation with antagonist. The peak P2X3 current amplitude in the presence of antagonist was used to calculate the inhibitory effect at each concentration of the antagonist according to the following equation: […]
Concentration-response curves were constructed from ten different concentrations with each concentration of antagonist tested on at least two individual cells. The concentration of the antagonist to inhibit P2X3 current by 50% (IC50) was determined by fitting the data with the following equation: […]
Where ‘a’ is minimum response, ‘b’ is maximum response, ‘c’ is IC50 and ‘d’ is Hill slope.
The results for individual compounds are provided below in Table 6 and are expressed as range of activity.
The activity of the comparative examples A and B have been tested in the in vitro Electrophysiology Assay for P2X3 as described above.
In general terms: Patch clamp records ionic current or voltage across a cell membrane.
As to `Cc1noc(C(C)Nc2ncnc3c(OC4CCOCC4)cc(-c4ccc(F)cn4)cc23)n1` (single isomer, unassigned) [Example 85, 6-(5-fluoro-2-pyridyl)-N-[1-(3-methyl-1,2,4-oxadiazol-5-yl)ethyl]-8-tetrahydropyran-4-yloxy-quinazolin-4-amine], the IC50 was < 316 nM. As for `COc1cc(-c2ncc(C)s2)cc2c(NC(C)c3nnc(C)s3)ncnc12` (single isomer, unassigned) [Example 164, 8-methoxy-N-(1-(5-methyl-1,3,4-thiadiazol-2-yl)ethyl)-6-(5-methylthiazol-2-yl)quinazolin-4-amine], the IC50 lay in the range of 316 to 3160 nM. With `COc1cc(-n2ccc(F)n2)cc2c(N[C@H](C)c3ccc(C)nn3)ncnc12` [Example 101, (R)-6-(3-fluoro-1H-pyrazol-1-yl)-8-methoxy-N-(1-(6-methylpyridazin-3-yl)ethyl)quinazolin-4-amine], the IC50 fell in the range of 316 to 3160 nM. On to `Cc1ccc([C@@H](C)Nc2ncnc3c(OC4CCOCC4)cc(-c4ncc(C)s4)cc23)nn1` [Example 33], for which the IC50 is < 316 nM. `Cc1cnc(-c2cc(OC3CCOCC3)c3ncnc(NC(C)c4nnc(C)s4)c3c2)s1` (single isomer, unassigned) [Example 171, N-[1-(5-methyl-1,3,4-thiadiazol-2-yl)ethyl]-6-(5-methylthiazol-2-yl)-8-tetrahydropyran-4-yloxy-quinazolin-4-amine] had an IC50 of 316 to 3160 nM. As to `COc1cc(-c2ccc(F)cc2)cc2c(N[C@@H](C)c3cnc(C(F)(F)F)nc3)ncnc12` [Example 185, 6-(4-fluorophenyl)-8-methoxy-N-[(1S)-1-[2-(trifluoromethyl)pyrimidin-5-yl]ethyl]quinazolin-4-amine formate], the IC50 is < 316 nM. `COc1cc(-n2ccc(C)n2)cc2c(N[C@H](C)c3ccc(C)nn3)ncnc12` [Example 103, (R)-8-methoxy-6-(3-methyl-1H-pyrazol-1-yl)-N-(1-(6-methylpyridazin-3-yl)ethyl)quinazolin-4-amine] registered an IC50 of 316 to 3160 nM. In turn, `CN1CCC(CNc2ncnc3c(OCC(=O)O)cc(-c4ccc(F)cc4)cc23)CC1` [Example 57, 2-((6-(4-fluorophenyl)-4-(((1-methylpiperidin-4-yl)methyl)amino)quinazolin-8-yl)oxy)acetic Acid Hydrochloride] gave an IC50 of 316 to 3160 nM. As for `COc1cc(-n2cc(Cl)cn2)cc2c(N[C@H](C)c3ccc(C)nn3)ncnc12` [Example 100, (R)-6-(4-chloro-1H-pyrazol-1-yl)-8-methoxy-N-(1-(6-methylpyridazin-3-yl)ethyl)quinazolin-4-amine], the 50% inhibitory concentration (IC50) is < 316 nM. As to `COc1cc(-c2ccc(F)cn2)cc2c(NCc3ccn(C)n3)ncnc12` [Example 140, 6-(5-fluoro-2-pyridyl)-8-methoxy-N-[(1-methylpyrazol-3-yl)methyl]quinazolin-4-amine], the IC50 was 316 to 3160 nM. Still for that read-out and setting: the value for `COc1cc(-c2ncc(F)cn2)cc2c(NC(C)c3nc(C)no3)ncnc12` (centres unmarked) [Example 3, 6-(5-fluoropyrimidin-2-yl)-8-methoxy-N-(1-(3-methyl-1,2,4-oxadiazol-5-yl)ethyl)quinazolin-4-amine] was 316 to 3160 nM; that for `COc1cc(-c2ccc(C)cn2)cc2c(NCc3ccn(C)n3)ncnc12` [Example 141, 8-methoxy-N-[(1-methylpyrazol-3-yl)methyl]-6-(5-methyl-2-pyridyl)quinazolin-4-amine] was 316 to 3160 nM; that for `COc1cc(-c2ccc(F)cn2)cc2c(N[C@H](C)c3ccn(C)n3)ncnc12` [Example 158, 6-(5-fluoro-2-pyridyl)-8-methoxy-N-[(1R)-1-(1-methylpyrazol-3-yl)ethyl]quinazolin-4-amine] was 316 to 3160 nM. Take `COc1cc(-c2ncc(C)cn2)cc2c(NC(C)c3nc(-c4ccncc4)no3)ncnc12` (centres unmarked) [Example 6, 8-methoxy-6-(5-methylpyrimidin-2-yl)-N-(1-(3-(pyridin-4-yl)-1,2,4-oxadiazol-5-yl)ethyl)quinazolin-4-amine]: the IC50 lay within 316 to 3160 nM. Same read-out and setting: then `COc1cc(C2=CCOCC2)cc2c(NCc3ccc(C)nn3)ncnc12` [Example 188, 6-(3,6-Dihydro-2H-pyran-4-yl)-8-methoxy-N-((6-methylpyridazin-3-yl)methyl)quinazolin-4-amine], with 3160 to 31600 nM. Still for that read-out and setting: the value for `COc1cc(-c2ncc(C)cn2)cc2c(NC(C)c3nnc(C)s3)ncnc12` (single isomer, unassigned) [Example 125, 8-Methoxy-6-(5-methylpyrimidin-2-yl)-N-[1-(5-methyl-1,3,4-thiadiazol-2-yl)ethyl]quinazolin-4-amine] was < 316 nM; that for `COc1cc(-c2ncc(C)s2)cc2c(NC(C)c3nnc(C)s3)ncnc12` (centres unmarked) [Example 106, 8-methoxy-N-(1-(5-methyl-1,3,4-thiadiazol-2-yl)ethyl)-6-(5-methylthiazol-2-yl)quinazolin-4-amine] was < 316 nM.

The molecule `Cc1cnc(-c2cc(OCC3(O)CCOCC3)c3ncnc(NC(C)c4ccc(C)nn4)c3c2)nc1` (centres unmarked) [Example 34, 4-[[4-[1-(6-methylpyridazin-3-yl)ethylamino]-6-(5-methylpyrimidin-2-yl)quinazolin-8-yl]oxymethyl]tetrahydropyran-4-ol] had an IC50 of 316 to 3160 nM. On the same count and under the same terms, the value for `Cc1cnc(-c2cc(OC3CCOCC3)c3ncnc(NC(C)c4nnc(C)s4)c3c2)s1` (single isomer, unassigned) [Example 172, N-[1-(5-methyl-1,3,4-thiadiazol-2-yl)ethyl]-6-(5-methylthiazol-2-yl)-8-tetrahydropyran-4-yloxy-quinazolin-4-amine] was < 316 nM. Still for that read-out and setting: the value for `COc1cc(-c2ncc(C)s2)cc2c(NCc3ncc(F)cc3F)ncnc12` [Example 118, N-((3,5-difluoropyridin-2-yl)methyl)-8-methoxy-6-(5-methylthiazol-2-yl)quinazolin-4-amine] was < 316 nM.

In the case of `COc1cc(-c2ccc(F)cc2)cc2c(NCc3ccc(F)cn3)ncnc12` [Example 161, 6-(4-Fluorophenyl)-N-[(5-fluoro-2-pyridyl)methyl]-8-methoxy-quinazolin-4-amine], the IC50 is 316 to 3160 nM. On the same count and under the same terms, the value for `COc1cc(-c2ccc(F)cn2)cc2c(NCc3cc(C)no3)ncnc12` [Example 135, 6-(5-fluoropyridin-2-yl)-8-methoxy-N-((3-methylisoxazol-5-yl)methyl)quinazolin-4-amine] was 316 to 3160 nM; that for `COc1cc(-c2ccc(F)cn2)cc2c(NCc3cc[nH]c(=O)c3)ncnc12` [Example 148, 4-(((6-(5-fluoropyridin-2-yl)-8-methoxyquinazolin-4-yl)amino)methyl)pyridin-2(1H)-one] was 316 to 3160 nM. Regarding `C[C@@H](Nc1ncnc2c(OC3CCNC4(CCC4)C3)cc(-c3ccc(F)cc3)cc12)c1cnc(C(F)(F)F)nc1` (stereo partly drawn) [Example 39, 8-(5-azaspiro[3.5]nonan-8-yloxy)-6-(4-fluorophenyl)-N-[(1R)-1-[2-(trifluoromethyl)pyrimidin-5-yl]ethyl]quinazolin-4-amine], the IC50 was < 316 nM. `COc1cc(-c2ccc(C)cn2)cc2c(NC(C)c3nc(C)no3)ncnc12` (single isomer, unassigned) [Example 162, 8-Methoxy-N-[1-(3-methyl-1,2,4-oxadiazol-5-yl)ethyl]-6-(5-methyl-2-pyridyl)quinazolin-4-amine] came in with an IC50 of 316 to 3160 nM.

Staying with this test, now noted: range of activity; inhibition of P2X3 current evoked by 800 nM α,β-MeATP, 10 min antagonist preincubation; comparative examples.
`Cc1ccc(COc2ncnc3ncc(-c4ccc(F)cc4)cc23)cn1` [Comparative Example A, 6-(4-fluorophenyl)-4-[(6-methyl-3-pyridyl)methoxy]pyrido[2,3-d]pyrimidine, reference compound]: the “h P2X3” value is “inactive”.
